Assay results published in patent US12427210B2, “Compounds comprising a fibroblast activation protein ligand and use thereof” (priority 2019, dated 2025).
Where two headings read alike, the source gives them in different places. Numbered stars: 1 amine (or outer) side, 2 acyl side, 3 side chain; on linkers, the order of the positions; unused ones are H or OH. Bridge positions count the residues as written; N and C are the ends. Peptide text beside a SMILES is read from it. * marks the point of attachment. X1 = O=C(O)CN1CCN(CC(=O)O)CCN(CC(=O)N2CCN(Cc3cc(C[*:1])cc(C[*:2])c3)CC2)CCN(CC(=O)O)CC1; Hexanoyl = CCCCCC(=O)*

Columns and labels:
[1] = molecular target: T1, Matrix metalloprotease 2 (Homo sapiens, UniProt P08253); assay: biochemical; details: read-out: Percentage inhibition (%)
T1 sequence (P08253 110-660): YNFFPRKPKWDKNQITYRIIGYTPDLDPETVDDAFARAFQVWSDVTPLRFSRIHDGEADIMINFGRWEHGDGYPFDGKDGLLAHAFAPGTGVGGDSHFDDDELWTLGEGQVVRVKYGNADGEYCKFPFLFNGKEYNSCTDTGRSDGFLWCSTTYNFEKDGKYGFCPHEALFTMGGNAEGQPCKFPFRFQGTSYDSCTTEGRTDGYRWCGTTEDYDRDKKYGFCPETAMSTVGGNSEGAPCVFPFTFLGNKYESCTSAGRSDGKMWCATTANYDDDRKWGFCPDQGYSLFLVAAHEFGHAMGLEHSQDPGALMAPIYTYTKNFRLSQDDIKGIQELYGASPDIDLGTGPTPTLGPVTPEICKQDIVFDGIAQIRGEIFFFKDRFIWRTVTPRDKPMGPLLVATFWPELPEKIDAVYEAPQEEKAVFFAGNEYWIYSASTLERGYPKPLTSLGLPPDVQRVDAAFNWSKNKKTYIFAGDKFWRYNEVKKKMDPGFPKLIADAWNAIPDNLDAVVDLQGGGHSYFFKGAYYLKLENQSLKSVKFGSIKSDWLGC

[2] = molecular target: 5-HT2A (h) (Homo sapiens, UniProt P28223); assay: biochemical; details: read-out: % Inhibition of Specific Binding
5-HT2A (h), sequence (P28223 whole entry): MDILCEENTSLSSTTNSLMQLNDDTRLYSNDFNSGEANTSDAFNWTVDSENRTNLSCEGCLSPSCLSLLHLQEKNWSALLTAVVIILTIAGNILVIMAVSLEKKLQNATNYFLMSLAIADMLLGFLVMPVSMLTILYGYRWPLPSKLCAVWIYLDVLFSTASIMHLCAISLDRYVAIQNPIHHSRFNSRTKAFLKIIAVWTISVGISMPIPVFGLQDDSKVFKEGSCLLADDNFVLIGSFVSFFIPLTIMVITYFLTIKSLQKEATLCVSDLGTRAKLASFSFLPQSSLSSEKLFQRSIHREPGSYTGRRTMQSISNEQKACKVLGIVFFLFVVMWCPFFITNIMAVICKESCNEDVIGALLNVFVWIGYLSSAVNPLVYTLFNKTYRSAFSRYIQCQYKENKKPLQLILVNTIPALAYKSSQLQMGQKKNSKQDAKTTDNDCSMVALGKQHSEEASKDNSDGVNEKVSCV

[3] = molecular target: beta 2 (h) (Homo sapiens, UniProt P07550); assay: biochemical; details: read-out: % Inhibition of Specific Binding
beta 2 (h), sequence (P07550 whole entry): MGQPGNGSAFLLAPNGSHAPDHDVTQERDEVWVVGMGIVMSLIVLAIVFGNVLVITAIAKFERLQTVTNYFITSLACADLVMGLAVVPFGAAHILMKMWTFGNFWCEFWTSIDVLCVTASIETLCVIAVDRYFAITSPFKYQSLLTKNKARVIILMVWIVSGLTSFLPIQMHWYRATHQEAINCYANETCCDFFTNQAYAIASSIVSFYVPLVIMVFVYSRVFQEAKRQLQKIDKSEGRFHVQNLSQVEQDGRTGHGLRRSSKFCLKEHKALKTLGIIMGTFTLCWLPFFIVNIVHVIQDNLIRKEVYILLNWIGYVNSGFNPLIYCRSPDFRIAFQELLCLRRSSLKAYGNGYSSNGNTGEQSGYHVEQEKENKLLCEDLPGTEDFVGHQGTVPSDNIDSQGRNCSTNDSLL

[4] = molecular target: DPP7 (Homo sapiens, UniProt Q9UHL4); assay: biochemical; details: read-out: Percentage inhibition (%)
[5] = molecular target: T2, Ubiquitin carboxy-terminal hydrolase L1 (Homo sapiens, UniProt P09936); assay: biochemical; details: read-out: Percentage inhibition (%)
T2 sequence (P09936 1-223): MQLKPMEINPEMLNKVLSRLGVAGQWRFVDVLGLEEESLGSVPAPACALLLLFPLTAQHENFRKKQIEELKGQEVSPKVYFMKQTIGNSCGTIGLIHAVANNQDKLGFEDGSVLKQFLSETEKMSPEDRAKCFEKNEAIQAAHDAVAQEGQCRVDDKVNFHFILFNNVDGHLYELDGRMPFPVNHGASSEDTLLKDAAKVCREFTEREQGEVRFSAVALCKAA

[6] = molecular target: 5-HT1B (h) (Homo sapiens, UniProt P28222); assay: biochemical; details: read-out: % Inhibition of Specific Binding
5-HT1B (h), sequence (P28222 whole entry): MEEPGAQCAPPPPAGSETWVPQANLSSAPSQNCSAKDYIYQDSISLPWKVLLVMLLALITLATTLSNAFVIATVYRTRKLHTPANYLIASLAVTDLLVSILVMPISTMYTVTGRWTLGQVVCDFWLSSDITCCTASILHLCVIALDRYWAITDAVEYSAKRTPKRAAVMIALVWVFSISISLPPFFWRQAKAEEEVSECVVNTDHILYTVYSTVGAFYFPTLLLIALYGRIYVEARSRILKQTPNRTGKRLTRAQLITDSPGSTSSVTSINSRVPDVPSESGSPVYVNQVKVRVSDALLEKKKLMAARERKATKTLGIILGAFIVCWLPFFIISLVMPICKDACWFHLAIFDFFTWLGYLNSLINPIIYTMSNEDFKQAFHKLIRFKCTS

[7] = molecular target: M2 (h) (Homo sapiens, UniProt P08172); assay: biochemical; details: read-out: % Inhibition of Specific Binding
M2 (h), sequence (P08172 whole entry): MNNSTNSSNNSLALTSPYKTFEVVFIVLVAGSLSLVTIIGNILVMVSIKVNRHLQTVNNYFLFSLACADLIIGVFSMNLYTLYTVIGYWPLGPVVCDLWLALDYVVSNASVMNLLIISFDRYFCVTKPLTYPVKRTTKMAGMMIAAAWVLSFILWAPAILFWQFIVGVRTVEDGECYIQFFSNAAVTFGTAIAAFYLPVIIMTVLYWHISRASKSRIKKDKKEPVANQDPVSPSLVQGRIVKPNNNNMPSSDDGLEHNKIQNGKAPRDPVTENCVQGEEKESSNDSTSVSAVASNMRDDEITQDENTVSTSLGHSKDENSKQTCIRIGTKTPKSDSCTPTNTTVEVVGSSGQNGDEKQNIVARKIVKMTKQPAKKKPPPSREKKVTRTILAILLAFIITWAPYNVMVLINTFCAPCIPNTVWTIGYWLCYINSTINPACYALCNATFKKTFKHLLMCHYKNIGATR

[8] = molecular target: serine protease NS3 (a.a. 3-181) from Hepatitis C virus genotype 2a (Hepatitis C virus genotype 2a, UniProt Q99IB8); assay: biochemical; details: read-out: Percentage inhibition (%)
serine protease NS3 (a.a. 3-181) from Hepatitis C virus genotype 2a, sequence (Q99IB8 1033-1211 limits assumed, other chains not shown): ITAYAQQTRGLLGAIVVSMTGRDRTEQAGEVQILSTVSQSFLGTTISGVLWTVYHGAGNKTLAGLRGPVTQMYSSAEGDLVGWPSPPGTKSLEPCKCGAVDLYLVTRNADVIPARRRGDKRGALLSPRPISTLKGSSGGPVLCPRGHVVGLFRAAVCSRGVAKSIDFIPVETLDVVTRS

[9] = tested on: Ca2+ channel (L, dihydropyridine site); details: 10 μM
[10] = tested on: serine protease NS3 (a.a. 3-181) from Hepatitis C virus genotype 1b (mutant R155K)
[11] = molecular target: MAO-A (Rattus norvegicus, UniProt P21396); assay: biochemical; details: read-out: % Inhibition of Specific Binding
MAO-A, sequence (P21396 whole entry): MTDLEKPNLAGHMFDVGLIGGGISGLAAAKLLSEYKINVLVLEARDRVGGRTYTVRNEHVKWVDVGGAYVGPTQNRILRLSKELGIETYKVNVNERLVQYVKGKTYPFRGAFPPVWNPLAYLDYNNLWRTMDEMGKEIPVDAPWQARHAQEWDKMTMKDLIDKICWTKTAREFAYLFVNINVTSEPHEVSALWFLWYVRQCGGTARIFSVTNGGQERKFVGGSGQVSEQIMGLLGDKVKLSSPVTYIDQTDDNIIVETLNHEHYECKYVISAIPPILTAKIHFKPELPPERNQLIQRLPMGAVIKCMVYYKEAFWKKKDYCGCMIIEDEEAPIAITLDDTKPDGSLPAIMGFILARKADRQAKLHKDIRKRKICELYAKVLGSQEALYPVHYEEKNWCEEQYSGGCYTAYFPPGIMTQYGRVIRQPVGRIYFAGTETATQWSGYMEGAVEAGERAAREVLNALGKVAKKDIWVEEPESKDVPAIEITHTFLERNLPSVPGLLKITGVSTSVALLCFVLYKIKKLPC

[12] = molecular target: 5-HT transporter (h) (Homo sapiens, UniProt P31645); assay: biochemical; details: read-out: % Inhibition of Specific Binding
5-HT transporter (h), sequence (P31645 whole entry): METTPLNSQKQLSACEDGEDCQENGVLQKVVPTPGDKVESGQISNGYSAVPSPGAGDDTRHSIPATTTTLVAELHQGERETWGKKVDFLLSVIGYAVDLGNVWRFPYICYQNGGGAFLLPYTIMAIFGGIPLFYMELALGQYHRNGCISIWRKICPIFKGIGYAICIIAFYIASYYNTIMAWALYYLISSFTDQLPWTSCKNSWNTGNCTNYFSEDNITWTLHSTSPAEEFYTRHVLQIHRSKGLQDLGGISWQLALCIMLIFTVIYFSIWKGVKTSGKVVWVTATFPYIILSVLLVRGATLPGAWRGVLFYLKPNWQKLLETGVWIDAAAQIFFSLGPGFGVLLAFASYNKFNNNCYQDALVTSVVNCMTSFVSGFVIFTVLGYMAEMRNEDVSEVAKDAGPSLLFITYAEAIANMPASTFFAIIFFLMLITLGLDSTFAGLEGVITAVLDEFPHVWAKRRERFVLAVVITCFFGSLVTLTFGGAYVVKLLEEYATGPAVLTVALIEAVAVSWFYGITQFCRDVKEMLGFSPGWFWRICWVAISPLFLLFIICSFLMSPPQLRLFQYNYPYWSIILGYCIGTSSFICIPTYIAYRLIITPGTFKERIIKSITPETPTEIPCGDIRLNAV

[13] = molecular target: Cathepsin S (Homo sapiens, UniProt P25774); assay: biochemical; details: read-out: Percentage inhibition (%)
Cathepsin S, sequence (P25774 115-331): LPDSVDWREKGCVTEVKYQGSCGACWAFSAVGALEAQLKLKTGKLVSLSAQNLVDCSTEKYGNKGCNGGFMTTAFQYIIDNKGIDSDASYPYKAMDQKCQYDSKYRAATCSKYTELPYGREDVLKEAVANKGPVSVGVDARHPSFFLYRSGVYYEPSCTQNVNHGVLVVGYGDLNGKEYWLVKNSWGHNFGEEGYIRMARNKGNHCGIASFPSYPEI

[14] = molecular target: H1 (h) (Homo sapiens, UniProt P35367); assay: biochemical; details: read-out: % Inhibition of Specific Binding
[15] = molecular target: Cathepsin V (Homo sapiens, UniProt O60911); assay: biochemical; details: read-out: Percentage inhibition (%)
Cathepsin V, sequence (O60911 114-334, species assumed): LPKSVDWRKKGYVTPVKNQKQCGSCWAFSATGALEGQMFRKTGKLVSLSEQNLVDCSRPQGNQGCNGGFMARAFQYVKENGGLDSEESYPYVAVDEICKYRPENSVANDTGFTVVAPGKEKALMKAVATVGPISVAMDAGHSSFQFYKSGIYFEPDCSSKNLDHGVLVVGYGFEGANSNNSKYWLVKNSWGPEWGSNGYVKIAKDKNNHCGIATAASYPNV

[16] = molecular target: ETA (h) (Homo sapiens, UniProt P25101); assay: biochemical; details: read-out: % Inhibition of Specific Binding
ETA (h), sequence (P25101 21-427): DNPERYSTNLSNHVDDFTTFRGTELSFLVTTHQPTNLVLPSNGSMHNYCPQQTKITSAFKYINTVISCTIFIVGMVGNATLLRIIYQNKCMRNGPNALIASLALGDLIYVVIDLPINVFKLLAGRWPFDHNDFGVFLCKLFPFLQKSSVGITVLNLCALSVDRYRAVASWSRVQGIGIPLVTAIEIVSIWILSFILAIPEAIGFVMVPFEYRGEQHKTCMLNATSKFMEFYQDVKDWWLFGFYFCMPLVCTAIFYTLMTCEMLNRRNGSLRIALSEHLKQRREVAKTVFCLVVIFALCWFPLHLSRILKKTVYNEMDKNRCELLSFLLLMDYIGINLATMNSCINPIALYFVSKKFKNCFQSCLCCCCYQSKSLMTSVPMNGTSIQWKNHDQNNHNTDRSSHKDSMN

[17] = molecular target: T3, Ubiquitin carboxyl-terminal hydrolase 5 (Homo sapiens, UniProt P45974); assay: biochemical; details: read-out: Percentage inhibition (%)
T3 sequence (P45974 1-858): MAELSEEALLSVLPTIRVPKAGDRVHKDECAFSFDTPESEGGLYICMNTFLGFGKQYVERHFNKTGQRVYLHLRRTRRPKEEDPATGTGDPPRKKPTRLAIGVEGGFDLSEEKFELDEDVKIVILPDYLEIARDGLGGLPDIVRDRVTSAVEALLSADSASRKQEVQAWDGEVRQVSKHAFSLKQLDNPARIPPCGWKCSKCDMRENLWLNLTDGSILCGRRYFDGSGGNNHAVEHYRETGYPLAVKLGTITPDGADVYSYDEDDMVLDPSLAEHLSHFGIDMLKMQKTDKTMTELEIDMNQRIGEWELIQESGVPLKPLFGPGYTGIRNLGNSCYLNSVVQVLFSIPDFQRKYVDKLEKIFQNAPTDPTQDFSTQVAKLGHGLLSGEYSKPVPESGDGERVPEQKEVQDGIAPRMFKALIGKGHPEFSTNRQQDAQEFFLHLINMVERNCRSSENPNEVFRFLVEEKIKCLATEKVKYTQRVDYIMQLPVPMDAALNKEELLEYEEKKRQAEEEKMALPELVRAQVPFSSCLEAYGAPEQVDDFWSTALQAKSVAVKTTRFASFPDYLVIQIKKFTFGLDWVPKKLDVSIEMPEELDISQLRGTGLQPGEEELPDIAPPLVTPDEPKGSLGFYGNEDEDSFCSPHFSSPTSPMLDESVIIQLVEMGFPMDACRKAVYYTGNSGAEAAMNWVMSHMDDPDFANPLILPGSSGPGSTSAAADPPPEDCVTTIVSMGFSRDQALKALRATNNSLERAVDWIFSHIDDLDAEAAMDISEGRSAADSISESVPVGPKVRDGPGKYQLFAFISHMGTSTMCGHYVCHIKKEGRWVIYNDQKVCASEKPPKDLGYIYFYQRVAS

[18] = molecular target: COX1(h) (Homo sapiens, UniProt P23219); assay: biochemical; details: read-out: % Inhibition of Specific Binding
COX1(h), sequence (P23219 24-599): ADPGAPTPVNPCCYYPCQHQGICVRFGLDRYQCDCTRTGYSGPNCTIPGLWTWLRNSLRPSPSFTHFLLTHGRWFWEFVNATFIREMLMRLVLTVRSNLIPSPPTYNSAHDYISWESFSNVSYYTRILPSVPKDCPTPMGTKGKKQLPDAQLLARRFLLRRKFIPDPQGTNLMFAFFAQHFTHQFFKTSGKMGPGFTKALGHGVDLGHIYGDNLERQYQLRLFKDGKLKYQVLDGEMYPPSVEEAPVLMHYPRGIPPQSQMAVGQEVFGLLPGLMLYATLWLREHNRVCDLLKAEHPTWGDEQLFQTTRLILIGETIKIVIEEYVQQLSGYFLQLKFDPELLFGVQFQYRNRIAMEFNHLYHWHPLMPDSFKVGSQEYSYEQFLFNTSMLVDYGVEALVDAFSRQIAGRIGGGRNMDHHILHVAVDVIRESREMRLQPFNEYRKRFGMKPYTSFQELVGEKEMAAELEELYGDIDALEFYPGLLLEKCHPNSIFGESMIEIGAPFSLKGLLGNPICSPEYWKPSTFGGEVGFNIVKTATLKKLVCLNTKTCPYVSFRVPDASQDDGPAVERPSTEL

Compound | inhibition at 1 µM [1] [%] | inhibition at 10 µM [1] [%] | inhibition at 10 µM [2] [%] | inhibition at 10 µM [3] [%] | inhibition at 1 µM [4] [%] | inhibition at 10 µM [4] [%] | inhibition at 1 µM [5] [%] | inhibition at 10 µM [5] [%] | inhibition at 10 µM [6] [%] | inhibition at 10 µM [7] [%] | inhibition at 1 µM [8] [%] | inhibition at 10 µM [8] [%] | % Inhibition of Specific Binding [9] [%] | Percentage inhibition (%) ([10]; 1 μM) | Percentage inhibition (%) ([10]; 10 μM) | inhibition at 10 µM [11] [%] | inhibition at 10 µM [12] [%] | inhibition at 1 µM [13] [%] | inhibition at 10 µM [13] [%] | inhibition at 10 µM [14] [%] | other results
CCCCCC(=O)N[C@H]1CSCc2cc(cc(CN3CCN(C(=O)CN4CCN(CC(=O)O)CCN(CC(=O)O)CCN(CC(=O)O)CC4)CC3)c2)CSC[C@@H](C(=O)N[C@@H](CC(=O)O)C(N)=O)NC(=O)[C@H](Cc2ccccc2)NC(=O)[C@H](CCC(N)=O)NC(=O)[C@H]([C@@H](C)O)NC(=O)[C@@H]2CCCN2C(=O)[C@@H]2CCCN2C1=O [Compound 3BP-3407, Hex-[Cys(tMeBn(DOTA-PP))-Pro-Pro-Thr-Gln-Phe-Cys]-Asp-NH2] (Hexanoyl-CPPTQFCD-NH2; linker 1-7 via X1) | 3 | 3 | -2 | 4 | 2 | -3 | -2 | 4 | -11 | -4 | 0 | -2 | 42 | −2 | 5 | -5 | -3 | 3 | 18 | 11 | inhibition at 1 µM [15]: 1%; inhibition at 10 µM [15]: -18%; inhibition at 10 µM [16]: -18%; inhibition at 1 µM [17]: 3%; inhibition at 10 µM [17]: 46%; inhibition at 10 µM [18]: 10%
CCCCCC(=O)N[C@H]1CSCc2cc(CSCCNC(=O)CN3CCN(CC(=O)O)CCN(CC(=O)O)CCN(CC(=O)O)CC3)cc(c2)CSC[C@@H](C(=O)O)NC(=O)[C@H](Cc2ccccc2)NC(=O)[C@H](CCC(N)=O)NC(=O)[C@H]([C@@H](C)O)NC(=O)[C@@H]2CCCN2C(=O)[C@@H]2CCCN2C1=O [Compound 3BP-3554, Hex-[Cys(tMeBn(DOTA-AET))-Pro-Pro-Thr-Gln-Phe-Cys]-OH] | -1 | -2 | 4 | 8 | -1 | -7 | -4 | 4 | 8 | 7 | -13 | -40 | 54 | −1 | 0 | -25 | -8 | -10 | -23 | 4 | inhibition at 1 µM [15]: -1%; inhibition at 10 µM [15]: -1%; inhibition at 10 µM [16]: 6%; inhibition at 1 µM [17]: -4%; inhibition at 10 µM [17]: -2%; inhibition at 10 µM [18]: 8%
